Source: US9694087B2, “Development of novel macromolecule transduction domain with improved cell permeability and method for using same” (priority 2011, dated 2017)
Where a SMILES comes first, the peptide text is derived from it. Where no end group is shown, it is not given here. The star is where a group is joined. X1 = O=C(C=Cc1ccc(O)cc1)*

How the values were obtained:
[1] = tested on: ICR mice; assay: In vivo epithelial tissue (skin) permeability by confocal microscopy; parameters: species or system mouse; settings: FITC-labelled, applied on gauze to back skin, 1, 3, 6 and 12 hours; FIG. 12
Description: After 1, 3, 6, and 12 hours, the mice were sacrificed by cervical dislocation, and skin at the drug-applied parts was extracted. Afterward, the skin was put in 4% paraformaldehyde for 24 hours to fix a tissue and then prepared in a 6 μm cryosection to form a slide. […] The stained tissue was washed again three times with PBS buffer for 10 minutes, fixed with mounting media, and observed by confocal microscopy.

[2] = tested on: HeLa cells; assay: Visible cell permeability by confocal microscopy, cervix adenocarcinoma cells; assay type: cell-based, human; settings: 5 μM, 1 hour, FIG. 10
Description: Cell permeability of HeLa cells (HeLa cell, Human cervix adenocarcinoma, Cat No. CCL-2, ATCC, USA) derived from Human cervix adenocarcinoma as cancer-derived cells was compared using a confocal microscope (Carl Zeisse, Germany).
Particularly, before a test, the HeLa cells were cultured in a 12-well culture plate with a glass cover slip for 24 hours. The HeLa cells were cultured in a DMEM medium containing 10% fetal bovine serum (FBS), and 1% penicillin/streptomycin (10,000 units penicillin and 10,000 μg/mL streptomycin, invitrogen), in a humidified atmosphere with 5% CO2 at 37° C. After 5 μM of peptides was treated to the […] for 1 hour, the cells were fixed with 4% paraformaldehyde (PFA) at room temperature for 20 minutes to observe the cell permeability using a confocal microscope.
To directly detect internalized MTD-FITC, the cells were washed three times with phosphoric acid buffer and 5 μM of 4′,6-diamidino-2-phenylindole (DAPI), which is a nucleus fluorescence staining solution, was counter-stained. […] In addition, an original form of the cell was observed using a nomarski filter with a confocal microscope, and FITC fluorescence and DAPI fluorescence were observed using a filter suitable for a fluorochrome.

[3] = tested on: human skin; assay: Primary stimulus test using human skin (patch test); assay type: in vivo; settings: overall evaluation from Table 4
Description: To confirm safety of the modified MTD (M1067) synthesized in Example 4, the modified MTD (M1067)-coumaric acid and the modified MTD (M1067)-acetyl pentapeptide synthesized in Examples 12-1 and 12-2, a primary stimulus test using human skin was performed. The test was conducted by a specialized clinical research organization, Dermapro, and the clinical composition was prepared as will be described below. 30 or more subjects meeting standards for the clinical test and not falling under exclusion standards were selected. Sample materials were applied to backs of the subjects, and removed after 48 hours. The test sites were observed 30 minutes and 24 hours later, after the removal.
The skin evaluation was performed by the Frosch & Kligman method (Frosch P. J and Kligman A. M. J Am Acad Dermatol, 1(1):35-41 (1979)) and standards shown in Table 3 reflecting the Cosmetic, Toiletry, and Fragrance Association (CTFA) guidelines (The Cosmetic, Toiletry and Fragrance Association, Inc. Washington, D.C. 20005 (1981)), average degrees of reaction after 48 and 72 hours were compared, and results were determined based on the average degree of reaction of each composition.

| Compound | epithelial permeation [1] | intracellular localization of the FITC-peptide [2] | evaluation in the human skin primary stimulus test [3] |
| --- | --- | --- | --- |
| GRKKRRQRRR (also: FITC label, place not given here) [Tat, used FITC-labelled, reference compound] | epithelial permeation was not induced | attached to an outside of the cell membrane | – |
| Met Arg Ala Ala Ala Pro Ala Val Ala Ala Lys*Ther Ther Lys Ser [modified MTD (M1067)-acetyl pentapeptide] | – | – | low-stimuli materials |
| M1103: modified MTD having an amino acid sequence of SEQ. ID. NO: 17 (MRLALPVLLLA; MTD 1103 Amino Acid Sequence) | – | apparently distributed into a cytoplasm | – |
| CSCC[C@H](NC(=O)[C@H](CCCNC(=N)N)NC(=O)[C@H](C)NC(=O)[C@H](C)NC(=O)[C@H](C)NC(=O)[C@@H]1CCCN1C(=O)[C@H](C)NC(=O)[C@@H](NC(=O)[C@H](C)NC(=O)[C@H](C)NC(=O)C=Cc1ccc(O)cc1)C(C)C)C(=O)O [modified MTD (M1067)-coumaric acid] (X1-AAVAPAAARM-OH) | – | – | low-stimuli materials |
| CSCC[C@H](N)C(=O)N[C@@H](CCCNC(=N)N)C(=O)N[C@@H](C)C(=O)N[C@@H](C)C(=O)N[C@@H](C)C(=O)N1CCC[C@H]1C(=O)N[C@@H](C)C(=O)N[C@H](C(=O)N[C@@H](C)C(=O)N[C@@H](C)C(=O)O)C(C)C [M1067] (H-MRAAAPAVAA-OH) | – | – | low-stimuli materials |
